Key:
Experiment in all cases: relative viability (nuclei count vs DMSO), 5 days (fraction); higher = more cells survive
201T = system: 201T
How it was run: (§1)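 Lung cancer cell lines in 1536-well plates were dosed by pin tool the day after seeding, either with one drug alone or with a fixed anchor-drug dose plus five library-drug doses (not always all listed) in √10 steps. After 5 days, cells were fixed and their nuclei stained in one step (final 0.05% Triton X-100, 1% formaldehyde, 1 ug/ml Hoechst), then counted on 4× images. Relative viability is the nuclei count in treated wells divided by that in vehicle wells. Values are medians of duplicate plates.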

EMC-BAC-2 = system: EMC-BAC-2
How it was run: as §1

EPLC-272H = system: EPLC-272H
How it was run: as §1

HCC-78 = system: HCC-78
How it was run: as §1

LOU-NH91 = system: LOU-NH91
How it was run: as §1

NCI-H1395 = system: NCI-H1395
How it was run: as §1

NCI-H1437 = system: NCI-H1437
How it was run: as §1

NCI-H1651 = system: NCI-H1651
How it was run: as §1

NCI-H1734 = system: NCI-H1734
How it was run: as §1

NCI-H1792 = system: NCI-H1792
How it was run: as §1

NCI-H1793 = system: NCI-H1793
How it was run: as §1

NCI-H1915 = system: NCI-H1915
How it was run: as §1

NCI-H1975 = system: NCI-H1975
How it was run: as §1

NCI-H2023 = system: NCI-H2023
How it was run: as §1

NCI-H23 = system: NCI-H23
How it was run: as §1

NCI-H2405 = system: NCI-H2405
How it was run: as §1

NCI-H647 = system: NCI-H647
How it was run: as §1

RERF-LC-KJ = system: RERF-LC-KJ
How it was run: as §1

SK-LU-1 = system: SK-LU-1
How it was run: as §1

UMC-11 = system: UMC-11
How it was run: as §1

`Cc1cnc(-c2cnc(NCCNc3ccc(C#N)cn3)nc2-c2ccc(Cl)cc2Cl)[nH]1` + CC1(C)CCC(c2ccc(Cl)cc2)=C(CN2CCN(c3ccc(C(=O)NS(=O)(=O)c4ccc(N[C@H](CCN5CCOCC5)CSc5ccccc5)c(S(=O)(=O)C(F)(F)F)c4)cc3)CC2)C1 [Navitoclax] (partner 0.5 µM) showed a relative viability (201T; first compound 0.08 µM) of 1.19, a relative viability (201T; first compound 0.253 µM) of 1.17 and a relative viability (201T; first compound 0.8 µM) of 1.2. It also gave a relative viability (201T; first compound 2.53 µM) of 1.23, a relative viability (EMC-BAC-2; first compound 0.08 µM) of 1.17 and a relative viability (EMC-BAC-2; first compound 0.253 µM) of 1.05. For the same compound, the relative viability (EMC-BAC-2; first compound 0.8 µM) was 1.18, the relative viability (EMC-BAC-2; first compound 2.53 µM) was 1.18 and the relative viability (EPLC-272H; first compound 0.08 µM) was 1.22. For the same compound, the relative viability (EPLC-272H; first compound 0.253 µM) was 1.31, the relative viability (EPLC-272H; first compound 0.8 µM) was 1.12 and the relative viability (EPLC-272H; first compound 2.53 µM) was 1.07. For the same compound, the relative viability (HCC-78; first compound 0.08 µM) was 0.955, the relative viability (HCC-78; first compound 0.253 µM) was 0.661 and the relative viability (HCC-78; first compound 0.8 µM) was 0.701. The relative viability (HCC-78; first compound 2.53 µM) was 0.757, the relative viability (LOU-NH91; first compound 0.08 µM) was 0.821 and the relative viability (LOU-NH91; first compound 0.253 µM) was 0.679. The relative viability (LOU-NH91; first compound 0.8 µM) was 0.611, the relative viability (LOU-NH91; first compound 2.53 µM) was 0.633 and the relative viability (NCI-H1395; first compound 0.08 µM) was 1.25. It also gave a relative viability (NCI-H1395; first compound 0.253 µM) of 1.15, a relative viability (NCI-H1395; first compound 0.8 µM) of 1.19 and a relative viability (NCI-H1395; first compound 2.53 µM) of 1.15. It also gave a relative viability (NCI-H1437; first compound 0.08 µM) of 1.1, a relative viability (NCI-H1437; first compound 0.253 µM) of 1.05 and a relative viability (NCI-H1437; first compound 0.8 µM) of 1.12. It also gave a relative viability (NCI-H1437; first compound 2.53 µM) of 1.12, a relative viability (NCI-H1651; first compound 0.08 µM) of 1.09 and a relative viability (NCI-H1651; first compound 0.253 µM) of 0.874. It also gave a relative viability (NCI-H1651; first compound 0.8 µM) of 1.06, a relative viability (NCI-H1651; first compound 2.53 µM) of 1.2 and a relative viability (NCI-H1734; first compound 0.08 µM) of 0.946. It also gave a relative viability (NCI-H1734; first compound 0.253 µM) of 0.784, a relative viability (NCI-H1734; first compound 0.8 µM) of 0.829 and a relative viability (NCI-H1734; first compound 2.53 µM) of 0.788. The relative viability (NCI-H1792; first compound 0.08 µM) was 0.624, the relative viability (NCI-H1792; first compound 0.253 µM) was 0.577 and the relative viability (NCI-H1792; first compound 0.8 µM) was 0.601. For the same compound, the relative viability (NCI-H1792; first compound 2.53 µM) was 0.568, the relative viability (NCI-H1793; first compound 0.08 µM) was 0.399 and the relative viability (NCI-H1793; first compound 0.253 µM) was 0.446. For the same compound, the relative viability (NCI-H1793; first compound 0.8 µM) was 0.283, the relative viability (NCI-H1793; first compound 2.53 µM) was 0.354 and the relative viability (NCI-H1915; first compound 0.08 µM) was 0.85. It also gave a relative viability (NCI-H1915; first compound 0.8 µM) of 0.704, a relative viability (NCI-H1915; first compound 2.53 µM) of 0.778 and a relative viability (NCI-H1975; first compound 0.08 µM) of 1.12. It also gave a relative viability (NCI-H1975; first compound 0.253 µM) of 0.982, a relative viability (NCI-H1975; first compound 0.8 µM) of 0.933 and a relative viability (NCI-H1975; first compound 2.53 µM) of 0.567. The relative viability (NCI-H2023; first compound 0.08 µM) was 1.01, the relative viability (NCI-H2023; first compound 0.253 µM) was 0.977 and the relative viability (NCI-H2023; first compound 0.8 µM) was 1.08. It also gave a relative viability (NCI-H2023; first compound 2.53 µM) of 1.09, a relative viability (NCI-H23; first compound 0.08 µM) of 0.875 and a relative viability (NCI-H23; first compound 0.253 µM) of 0.87. It also gave a relative viability (NCI-H23; first compound 0.8 µM) of 0.63, a relative viability (NCI-H23; first compound 2.53 µM) of 0.785 and a relative viability (NCI-H2405; first compound 0.08 µM) of 1.17. The relative viability (NCI-H2405; first compound 0.253 µM) was 0.761, the relative viability (NCI-H2405; first compound 0.8 µM) was 1.02 and the relative viability (NCI-H2405; first compound 2.53 µM) was 0.326. It also gave a relative viability (NCI-H647; first compound 0.08 µM) of 1.19, a relative viability (NCI-H647; first compound 0.253 µM) of 0.718 and a relative viability (NCI-H647; first compound 0.8 µM) of 1.07. For the same compound, the relative viability (NCI-H647; first compound 2.53 µM) was 0.723, the relative viability (RERF-LC-KJ; first compound 0.08 µM) was 1.08 and the relative viability (RERF-LC-KJ; first compound 0.253 µM) was 0.626. For the same compound, the relative viability (RERF-LC-KJ; first compound 0.8 µM) was 0.905, the relative viability (RERF-LC-KJ; first compound 2.53 µM) was 0.776 and the relative viability (SK-LU-1; first compound 0.08 µM) was 0.976. For the same compound, the relative viability (SK-LU-1; first compound 0.253 µM) was 0.807, the relative viability (SK-LU-1; first compound 0.8 µM) was 1.2 and the relative viability (SK-LU-1; first compound 2.53 µM) was 0.692. The relative viability (UMC-11; first compound 0.08 µM) was 0.341, the relative viability (UMC-11; first compound 0.253 µM) was 0.295 and the relative viability (UMC-11; first compound 0.8 µM) was 0.304. For the same compound, the relative viability (UMC-11; first compound 2.53 µM) was 0.324.
